# According to patent US9295631B2, “Skin lightening composition” (Conopco, Inc., priority 2012, dated 2016):
# System: Primary human melanocytes
# Assay: Melanin content in-vitro assay after siRNA transfection
# Format: cell-based
# Design: dose or concentration left out as unconfirmed
# Settings: 72 hours; average of 3 readings
# Method: Ten siRNA double strands of which one strand has the oligonucleotide as given below were synthetically prepared and used to estimate the potential as skin lightening agent using the melanin content in-vitro assay. It is clear to a person skilled in this area that specifying a single strand is sufficient to fully define the double stranded siRNA. The in-vitro assay was carried out as below: Primary human melanocytes were cultured for 24 hrs. Cells were transfected with Mirus Trans IT-TKO transfection reagent and duplex oligomers in culture media. […] After 1 hour at 60° C., absorbance was measured at 400 nm. Melanin content is expressed as % melanin content over scramble treated cells. The experiments were carried out and the data on melanin content as a percentage of the control sample is summarized as an average of 3 readings in table 1. Kojic acid is known to complete action within 72 hours.
smiles,measurement,value
O=c1cc(CO)occ1O [Kojic acid],% control melanin,76%
